Among the data in US10239835B2, “N-alkylaryl-5-oxyaryl-octahydro-cyclopenta[c]pyrrole negative allosteric modulators of NR2B” (Luc Therapeutics, Inc., priority 2014, dated 2019) are IC50 values, retold here.

For assay [1], the target named is HEK293 cells expressing NR1/NR2B (Homo sapiens (Human), UniProt Q05586+Q13224). Put plainly: NR2B NAM Assay (FDSS Ca2+ influx cell assay). It is filed as cell-based. As to conditions: NR2B NAM assay, class of inhibitory concentration; read-out: Activity Category. The protocol: (§1) Cell Culture and plating: HEK293 cells expressing NR1/NR2B (Chantest, Cleveland, Ohio) were grown to 70-80% confluency as an adherent monolayer in standard tissue culture flasks at 37° C., 5% CO2 per supplier's instructions. NR2B expression was induced by incubation with 0.3-0.4 μg/ml tetracycline in the presence of 4 mM ARL-15896 for 18-24 hours under the same growth conditions, then transferred to 30° C. for another 3-5 hours.
Chain of HEK293 cells expressing NR1/NR2B (Homo sapiens (Human), UniProt Q05586+Q13224) (Q13224 27-1484, other chains not shown): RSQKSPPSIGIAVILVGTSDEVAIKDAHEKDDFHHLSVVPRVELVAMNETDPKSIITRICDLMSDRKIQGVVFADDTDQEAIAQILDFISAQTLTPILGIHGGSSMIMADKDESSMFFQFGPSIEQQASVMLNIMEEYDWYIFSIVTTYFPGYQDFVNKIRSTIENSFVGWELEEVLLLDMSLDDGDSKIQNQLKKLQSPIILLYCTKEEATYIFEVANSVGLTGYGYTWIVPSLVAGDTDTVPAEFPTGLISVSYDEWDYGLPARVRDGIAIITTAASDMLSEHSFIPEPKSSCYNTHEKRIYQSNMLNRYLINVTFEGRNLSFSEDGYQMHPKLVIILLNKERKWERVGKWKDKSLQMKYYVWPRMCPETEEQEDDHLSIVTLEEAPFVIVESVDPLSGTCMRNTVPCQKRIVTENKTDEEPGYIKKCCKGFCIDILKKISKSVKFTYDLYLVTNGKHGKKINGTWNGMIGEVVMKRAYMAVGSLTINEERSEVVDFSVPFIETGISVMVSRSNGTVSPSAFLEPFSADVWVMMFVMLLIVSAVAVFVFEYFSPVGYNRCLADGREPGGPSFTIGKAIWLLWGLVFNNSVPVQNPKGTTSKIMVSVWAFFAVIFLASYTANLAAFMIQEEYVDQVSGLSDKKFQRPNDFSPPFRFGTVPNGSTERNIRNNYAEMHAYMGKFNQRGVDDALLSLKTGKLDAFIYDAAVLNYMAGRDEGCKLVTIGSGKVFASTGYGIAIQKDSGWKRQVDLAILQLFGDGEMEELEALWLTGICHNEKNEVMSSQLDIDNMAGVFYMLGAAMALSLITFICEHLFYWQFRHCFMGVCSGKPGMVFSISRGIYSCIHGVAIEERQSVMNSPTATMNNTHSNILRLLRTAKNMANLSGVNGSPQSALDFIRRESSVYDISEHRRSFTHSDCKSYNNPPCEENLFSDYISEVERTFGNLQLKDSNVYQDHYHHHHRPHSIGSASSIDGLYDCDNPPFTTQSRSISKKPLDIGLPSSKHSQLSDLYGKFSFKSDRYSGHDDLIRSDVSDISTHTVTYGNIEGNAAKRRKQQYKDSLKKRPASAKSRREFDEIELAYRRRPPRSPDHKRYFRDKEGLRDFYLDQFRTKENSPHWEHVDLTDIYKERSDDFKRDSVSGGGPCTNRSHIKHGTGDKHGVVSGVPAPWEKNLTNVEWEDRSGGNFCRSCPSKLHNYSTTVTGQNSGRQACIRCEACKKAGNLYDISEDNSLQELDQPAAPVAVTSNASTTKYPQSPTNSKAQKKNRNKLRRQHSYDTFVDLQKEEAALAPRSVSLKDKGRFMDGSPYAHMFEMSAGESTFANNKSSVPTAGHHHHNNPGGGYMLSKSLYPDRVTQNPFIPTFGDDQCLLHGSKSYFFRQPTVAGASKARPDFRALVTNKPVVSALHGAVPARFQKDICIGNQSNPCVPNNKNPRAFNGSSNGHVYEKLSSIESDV
(§2) After induction, cell culture medium was removed and cells were rinsed once with Ca^2+ and Mg^2+-free Dulbecco's phosphate buffered saline. Cells were then removed from the flask using TrypLE™ Express (Life Technologies) according to the manufacturer's instructions and collected to 50 ml centrifuge tubes. Following two washes in Ca^2+/Mg^2+-free HBSS with 20 mM HEPES (HHnoCa), cells were counted and viability assessed using trypan blue. To load cells with Ca^2+-sensitive dye, they were resuspended in fluo-8 plus Component B (AAT Bioquest Products) diluted in HHnoCa and incubated 15 minutes at 37° C., followed by 30 minutes at room temp (in dark). Cells were then washed and resuspended in HHnoCa to remove extracellular dye and plated in 384-well plates (Falcon, uncoated) at 20,000-30,000 cells/well in a final volume of 25 μl/well.
(§3) FDSS Assay: To each well of the plate, 10 μL test compound, control (MK801) or HHnoCa buffer was added at different concentrations to yield final concentrations of 0.001, 0.003, 0.010, 0.030, 0.100, 0.300, 1.000, 3.000, 10.000, or 30.000 uM final concentration of DMSO of 0.1%. Following 10 minutes pre-incubation in the dark, plates are loaded onto the Hamamatsu FDSS 6000. After collecting baseline fluorescence images, 3 μM glutamate, 3 μM glycine, and 1 mM Ca^2+ in HHnoCa buffer is added to each well, and Ca^2+ is recorded for 3 minutes. Data were processed by computing ratio of fluorescence at the end of data collection to baseline fluorescence to assess degree of Ca^2+ influx inhibition relative to that observed in MK801.
(§4) Table 8 below provides activity of each compound according to the legend that “++++” indicates inhibition at a concentration<100 nM; “+++” indicates inhibition at a concentration between 100 nM and 1 μM of the disclosed compound; “++” indicates inhibition at a concentration of from 1 μM to 10 μM; and “+” indicates inhibition at a concentration>10 μM.

Assay [2] deals with HEK293 cells expressing NR1/NR2B (Homo sapiens (Human), UniProt Q13224). Put plainly: NR2B NAM Assay (FDSS Ca2+ influx cell assay). It is filed as cell-based. As to conditions: Ca2+ influx inhibition relative to MK801; 3 μM glutamate, 3 μM glycine, 1 mM Ca2+; read-out: NR2B NAM IC50. The protocol:
as §1, §2, §3, §4

Chain of HEK293 cells expressing NR1/NR2B (Homo sapiens (Human), UniProt Q13224) (Q13224 27-1484, other chains not shown): as above

As for `Oc1ccc(C(O)CN2C[C@H]3C[C@H](Oc4ccc(F)c(F)c4)C[C@H]3C2)nc1` (stereo partly drawn), the IC50 was less than 100 nM in assay [1] and 17.8 nM in assay [2].
Take `O=C(CN1C[C@H]2C[C@H](Oc3cc(F)cc(F)c3)C[C@H]2C1)c1ccc(O)cn1`: the IC50 in assay [1] was more than 10000 nM; in assay [2], 10000 nM.
Taken in the same sequence, the figures for `Oc1ccc(C(O)CN2C[C@H]3C[C@H](Oc4cc(F)cc(F)c4)C[C@H]3C2)nc1` (stereo partly drawn) were less than 100 nM and 58.3 nM.
Taken in the same sequence, the figures for `O=C(CN1C[C@H]2C[C@H](Oc3cccnc3)C[C@H]2C1)c1ccc(O)cc1` were less than 100 nM and 81.5 nM.
As to `O=C(CN1C[C@H]2C[C@H](Oc3ccc(F)cc3F)C[C@H]2C1)c1ccc(O)cc1`, the IC50 in assay [1] is less than 100 nM; in assay [2] it was 41.1 nM.
For the compound `Cc1ccc(O[C@H]2C[C@@H]3CN(CC(=O)c4ccc(O)cn4)C[C@@H]3C2)c(F)c1`, the IC50 in assay [1] was 100 to 1000 nM; in assay [2] it was 225 nM.
The corresponding values for `O=C(CN1C[C@H]2C[C@H](Oc3c(F)cccc3F)C[C@H]2C1)c1ccc(O)cc1` are less than 100 nM and 29.3 nM.
The corresponding values for `Oc1ccc(C(O)CN2C[C@H]3C[C@H](Oc4c(F)cccc4F)C[C@H]3C2)nc1` (stereo partly drawn) are less than 100 nM and 9.6 nM.
As for `Oc1ccc(C(O)CN2C[C@H]3C[C@H](Oc4ccc(F)cc4F)C[C@H]3C2)cc1` (stereo partly drawn), the IC50 in assay [1] was less than 100 nM; in assay [2], 8.62 nM.
The corresponding values for `COC(CN1C[C@H]2C[C@H](Oc3ccc(F)cc3)C[C@H]2C1)c1ccc(O)cc1` (stereo partly drawn) are 100 to 1000 nM and 139 nM.
Consider `O=C(CN1C[C@H]2C[C@H](Oc3cnccn3)C[C@H]2C1)c1ccc(O)cc1`, for which the IC50 in assay [1] is 100 to 1000 nM; in assay [2], 149 nM.
Turning to `Oc1ccc(C(O)CN2C[C@H]3C[C@H](Oc4ccc(F)cc4)C[C@H]3C2)nc1` (stereo partly drawn), the values for the IC50 in assay [1] and in assay [2] were less than 100 nM and 4.41 nM, respectively.
Consider `Cc1cccc(O[C@H]2C[C@@H]3CN(CC(=O)c4ccc(O)cn4)C[C@@H]3C2)c1F`, for which the IC50 in assay [1] is 100 to 1000 nM; in assay [2], 435 nM.
The corresponding values for `COc1cccc(F)c1O[C@H]1C[C@@H]2CN(CC(=O)c3ccc(O)cn3)C[C@@H]2C1` are more than 10000 nM and 10000 nM.
The corresponding values for `COc1ccc(F)c(O[C@H]2C[C@@H]3CN(CC(=O)c4ccc(O)cn4)C[C@@H]3C2)c1` are more than 10000 nM and 10000 nM.
Taken in the same sequence, the figures for `COc1cccc(F)c1O[C@H]1C[C@@H]2CN(CC(O)c3ccc(O)cn3)C[C@@H]2C1` (stereo partly drawn) were 100 to 1000 nM and 163 nM.
In the case of `COc1ccc(F)c(O[C@H]2C[C@@H]3CN(CC(O)c4ccc(O)cn4)C[C@@H]3C2)c1` (stereo partly drawn), the IC50 in assay [1] is 100 to 1000 nM; in assay [2], 547 nM.
Consider `COc1ccc(F)c(O[C@H]2C[C@@H]3CN(CC(=O)c4ccc(O)cc4)C[C@@H]3C2)c1`, for which the IC50 is 100 to 1000 nM in assay [1] and 631 nM in assay [2].
`COc1ccc(F)c(O[C@H]2C[C@@H]3CN(CC(O)c4ccc(O)cc4)C[C@@H]3C2)c1` (stereo partly drawn): the IC50 is 100 to 1000 nM in assay [1] and 569 nM in assay [2].
The corresponding values for `O=C(CN1C[C@H]2C[C@H](Oc3cccc(F)c3F)C[C@H]2C1)c1ccc(O)cn1` are 100 to 1000 nM and 308 nM.
The corresponding values for `Oc1ccc(C(O)CN2C[C@H]3C[C@H](Oc4ccc(F)cc4F)C[C@H]3C2)nc1` (stereo partly drawn) are less than 100 nM and 6.81 nM.
The corresponding values for `Cc1ccc(O[C@H]2C[C@@H]3CN(CC(O)c4ccc(O)cn4)C[C@@H]3C2)c(F)c1` (stereo partly drawn) are less than 100 nM and 14.4 nM.
As for `COc1cccc(O[C@H]2C[C@@H]3CN(CC(=O)c4ccc(O)cn4)C[C@@H]3C2)c1F`, the IC50 in assay [1] was 1000 to 10000 nM; in assay [2], 3780 nM.
Taken in the same sequence, the figures for `Cc1cccc(O[C@H]2C[C@@H]3CN(CC(O)c4ccc(O)cn4)C[C@@H]3C2)c1F` (stereo partly drawn) were less than 100 nM and 23.4 nM.
In the case of `Oc1ccc(C(O)CN2C[C@H]3C[C@H](Oc4cnccn4)C[C@H]3C2)cc1` (stereo partly drawn), the IC50 in assay [1] was 100 to 1000 nM; in assay [2], 243 nM.
With `Cc1cccc(O[C@H]2C[C@@H]3CN(CC(=O)c4ccc(O)cc4)C[C@@H]3C2)c1F`, the IC50 in assay [1] was 100 to 1000 nM; in assay [2] it was 177 nM.
The corresponding values for `COc1cccc(O[C@H]2C[C@@H]3CN(CC(O)c4ccc(O)cn4)C[C@@H]3C2)c1F` (stereo partly drawn) are less than 100 nM and 50.8 nM.
Regarding `COc1cccc(O[C@H]2C[C@@H]3CN(CC(=O)c4ccc(O)cc4)C[C@@H]3C2)c1F`, the figures for the IC50 in assay [1] and in assay [2] were 100 to 1000 nM and 117 nM, respectively.
With `Cc1cccc(O[C@H]2C[C@@H]3CN(CC(O)c4ccc(O)cc4)C[C@@H]3C2)c1F` (stereo partly drawn), the values for the IC50 in assay [1] and in assay [2] were less than 100 nM and 72.6 nM, respectively.
As to `COc1cccc(O[C@H]2C[C@@H]3CN(CC(O)c4ccc(O)cc4)C[C@@H]3C2)c1F` (stereo partly drawn), the IC50 in assay [1] is less than 100 nM; in assay [2], 77.7 nM.
The corresponding values for `Cc1ccc(O[C@H]2C[C@@H]3CN(CC(=O)c4ccc(O)cn4)C[C@@H]3C2)c(F)n1` are more than 10000 nM and 10000 nM.
The corresponding values for `COc1cccc(F)c1O[C@H]1C[C@@H]2CN(CC(=O)c3ccc(O)cc3)C[C@@H]2C1` are 100 to 1000 nM and 466 nM.
Taken in the same sequence, the figures for `COc1cccc(F)c1O[C@H]1C[C@@H]2CN(CC(O)c3ccc(O)cc3)C[C@@H]2C1` (stereo partly drawn) were 100 to 1000 nM and 249 nM.
Turning to `Oc1ccc(C(O)CN2C[C@H]3C[C@H](Oc4c(F)cccc4F)C[C@H]3C2)cc1` (stereo partly drawn), the IC50 was less than 100 nM in assay [1] and 26.3 nM in assay [2].
Taken in the same sequence, the figures for `O=C(CN1C[C@H]2C[C@H](Oc3ccccc3Cl)C[C@H]2C1)c1ccc(O)cn1` were 1000 to 10000 nM and 1660 nM.
Regarding `O=C(CN1C[C@H]2C[C@H](Oc3cncnc3)C[C@H]2C1)c1ccc(O)cc1`, the IC50 in assay [1] was 1000 to 10000 nM; in assay [2] it was 1040 nM.
The corresponding values for `Oc1ccc(C(O)CN2C[C@H]3C[C@H](Oc4cccc(F)c4F)C[C@H]3C2)nc1` (stereo partly drawn) are less than 100 nM and 8.78 nM.
Taken in the same sequence, the figures for `Cc1ccc(O[C@H]2C[C@@H]3CN(CC(=O)c4ccc(O)cc4)C[C@@H]3C2)c(F)c1` were 100 to 1000 nM and 210 nM.
Taken in the same sequence, the figures for `Cc1ccc(O[C@H]2C[C@@H]3CN(CC(O)c4ccc(O)cn4)C[C@@H]3C2)c(F)n1` (stereo partly drawn) were less than 100 nM and 60.2 nM.
For `Oc1ccc(C(O)CN2C[C@H]3C[C@H](Oc4ccccc4Cl)C[C@H]3C2)nc1` (stereo partly drawn), the values for the IC50 in assay [1] and in assay [2] were less than 100 nM and 38 nM, respectively.
The corresponding values for `O=C(CN1C[C@H]2C[C@H](Sc3ccccc3)C[C@H]2C1)c1ccc(O)cc1` are less than 100 nM and 26.7 nM.
Regarding `Oc1ccc(C(O)CN2C[C@H]3C[C@H](Sc4ccccc4)C[C@H]3C2)cc1` (stereo partly drawn), the values for the IC50 in assay [1] and in assay [2] were less than 100 nM and 9.36 nM, respectively.
